Results: patent US20140315972A1, “RS)-2-(2-oxo-4-phenylpyrrolidin-1-yl)acetamide compound having modulatory activity with a commensurate effect, pharmaceutical substance (variants) and its application, composition (variants) thereof” (priority 2011, published 2014)
Marks after values point to notes of the source that are not given here.

Test system: mice
Test: Spontaneous tumors in mice at autopsy
Assay type: in vivo
Conditions: for spontaneous tumors, Number, in %: mice, untreated control = 100
Description: The maximum life span (MLS) of mice according to our long-term statistical observations is 2.7-3, 2 years, i.e. in average 2.95 years or 1077 days. For this study we selected mice (10 individuals per group), males with dominant behavior in mixed groups, that safely survived to 985 days without signs of pronounced senility and with satisfactory orientation-exploratory behavior, determined by the “open field test” method. Phenotropil in doses of 25, 50 and 100 mg/kg was administered orally with 5.0% glucose solution. Glucose solution was used solely to improve the solubility of the drug. One control group received the glucose solution and the second one—distilled water. The third control group was not treated.
The greatest effect (Table 18) was obtained after treatment with Phenotropil in doses of 25 mg/kg (23.3%) and 100 mg/kg (24.0%). […] With a sample of 30 individuals in total in the three groups, we can talk about a high reliability of the findings.

NC(=O)CN1CC(c2ccccc2)CC1=O (racemic) [Compound 1, (RS)-2-(2-oxo-4-phenylpyrrolidine-1-yl)acetamide] was tested, and the “incidence and severity of spontaneous tumors lower by” value (100 mg/kg) was 2.37 times, the “spontaneous tumors, Number, in %” value (25 mg/kg + 5.0% glucose solution) was 57.0* % and the “spontaneous tumors, Number, in %” value (50 mg/kg + 5.0% glucose solution) was 74.5* %. For the same compound, the “spontaneous tumors, Number, in %” value (100 mg + 5.0% glucose solution) was 42.2* %.
